One compound from patent publication US20240342120A1, “MULTIPLE MYELOMA TREATMENT” (Vanda Pharmaceuticals Inc., priority 2013, published 2024) can be followed below.

Holding throughout (format): cell-based
One assay relates to CDC2. The assay can be described thus: Affymetrix gene expression, CDC2, cells treated 24 hours. The following applies: probe 203214_x_at; human retinal pigment epithelial cell line; 24 hours vs vehicle; Instance ID 10005533. The method, then: (§1) A human retinal pigment epithelial cell line was treated with trichostatin or vehicle for 24 hours and gene expression for 22,238 probe sets covering 12,490 genes was generated using an Affymetrix instrument.

The subject of assay [1] is CCNB1, AURKB, CDC2, BIRC5, KIF11, KIF2C, TOP2A, ASPM, CKS1B, and WEE1. The assay can be described thus: Affymetrix gene expression, ten-gene summary, cells treated 24 hours. The following applies: human retinal pigment epithelial cell line; 24 hours vs vehicle; summary in words of Table 1. The method, then: as §1
A further assay concerns TOP2A. Put plainly: Affymetrix gene expression, TOP2A, cells treated 24 hours. The following applies: human retinal pigment epithelial cell line, 24 hours vs vehicle. The method, then:
as §1

Regarding `CC(/C=C/C(=O)NO)=C\[C@@H](C)C(=O)c1ccc(N(C)C)cc1` [trichostatin A, 7-[4-(dimethylamino)phenyl]-N-hydroxy-4,6-dimethyl-7-oxohepta-2,4-dienamide], in the assay with CDC2, the “Fold Expression Δ, CDC2” value is −11.83 Fold. Further, the “effect on expression of CCNB1, AURKB, CDC2, BIRC5, KIF11, KIF2C, TOP2A, ASPM, CKS1B, and WEE1” value in assay [1] is on record as “significant downregulation”. Further, the “Fold Expression Δ, TOP2A” value in the assay on TOP2A (probe 201291_s_at, Instance ID 10005533) was −28.22 Fold; in the assay on TOP2A (probe 201292_at, Instance ID 10005532), −31.95 Fold.
